In brackets after ≈: the same amount, converted by molar mass. Where two headings read alike, the source gives them in different places.

A word on the IC50: it is the concentration at which inhibition is half-maximal. High values mean weaker potency, low ones greater potency. By clearance is commonly meant the volume of plasma or blood freed of the substance per unit of time. For orientation: kinetic solubility means the concentration staying in solution when a stock, usually in DMSO, is diluted into the medium.

One data set has as its target FmlH (Escherichia coli, UniProt Q1RBS0). It counts as binding, Escherichia coli (UPEC, CFT073).
A further data set can be described thus: Rat pharmacokinetics. Type of data set: in vivo. As to conditions: for renal clearance to the urine: after IV and PO administration.
A short description of data set [1]: Kinetic aqueous solubility. As to conditions: aqueous solution, pH 7.4. It counts as physicochemical.
Setting [2] is: IC50, ELISA, FmlH binding to desialylated bovine submaxillary mucin, average of four or more replicates.

Take `CC(=O)NC1[C@H](Oc2cccc(C(F)(F)F)c2-c2cccc(NS(C)(=O)=O)c2)O[C@H](CO)[C@H](O)[C@@H]1O` (stereo in doubt) [Compound 90, N-((2S,3S,4R,5R)-4,5-Dihydroxy-6-(hydroxymethyl)-2-((3’-(meth-ylsulfonamido)-6-(trifluoromethyl)-[1,1’-biphenyl]-2-yl)oxy)-tetrahydro-2H-pyran-3-yl)acetamide]: the “fold greater potency / improvement in activity relative to 1” value on FmlH (ELISA IC50 ratio) is listed as around 20 fold. This molecule also returned an IC50 at FmlH (setting [2]) of 34 nM. The “renal clearance to the urine” value in the data set “Rat pharmacokinetics” is “low renal clearance to the urine”. This molecule yielded a clearance in “Rat pharmacokinetics” (plasma, iv, 3 mg/kg) of 57 mL/min/kg.

On to `CNC(=O)c1cccc(-c2ccccc2O[C@@H]2O[C@H](CO)[C@H](O)[C@H](O)[C@H]2NC(C)=O)c1` [Compound 47, 2’-(((2S,3R,4R,5R,6R)-3-Acetamido-4,5-dihydroxy-6-(hydroxymethyl)tetrahydro-2H-pyran-2-yl)oxy)-N-methyl-[1,1’-bi-phenyl]-3-carboxamide], for which the IC50 at FmlH (setting [2]) stood at 3400 nM. That is a single-digit micromolar value.

In turn, `CC(=O)N[C@H]1[C@H](Oc2ccccc2-c2cccc(C(N)=O)c2)O[C@H](CO)[C@H](O)[C@@H]1O` [Compound 48, 2’-(((2S,3R,4R,5R,6R)-3-Acetamido-4,5-dihydroxy-6 (hydroxymethyl)tetrahydro-2H-pyran-2-yl)oxy)-[1,1’-biphenyl]-3-carboxamide] gave an IC50 on FmlH (setting [2]) of 1600 nM.

For the molecule `CC(=O)N[C@H]1[C@H](Oc2ccccc2-c2cccc(NS(=O)(=O)C(F)(F)F)c2)O[C@H](CO)[C@H](O)[C@@H]1O` [Compound 49, N-((2S,3R,4R,5R,6R)-4,5-Dihydroxy-6-(hydroxymethyl)-2-((3’-((trifluoromethyl)sulfonamido)-[1,1’-biphenyl]-2-yl)oxy)-tetrahydro-2H-pyran-3-yl)acetamide], the IC50 on FmlH (setting [2]) is 1100 nM.

`CC(=O)N[C@H]1[C@H](Oc2ccccc2-c2cccc(NS(C)(=O)=O)c2)O[C@H](CO)[C@H](O)[C@@H]1O` [Compound 50, N-((2S,3R,4R,5R,6R)-4,5-Dihydroxy-6-(hydroxymethyl)-2-((3’- (methylsulfonamido)-[1,1’-biphenyl]-2-yl)oxy)tetrahydro-2H-pyran-3-yl)acetamide]: on FmlH (ELISA IC50 ratio), the “fold greater potency / improvement in activity relative to 1” value worked out at 3 fold. For the same molecule, the “fold more potent than the matched pair Gal/GalNAc derivative” value on FmlH (ELISA IC50 ratio, 50 vs 51, 30 vs 29) is on record as “about 5 fold”. In addition, on FmlH (setting [2]), the IC50 was 230 nM.

Take `CS(=O)(=O)Nc1cccc(-c2ccccc2O[C@@H]2O[C@H](CO)[C@H](O)[C@H](O)[C@H]2O)c1` [Compound 51, N-(2’-(((2S,3R,4S,5R,6R)-3,4,5-Trihydroxy-6-(hydroxymethyl)-tetrahydro-2H-pyran-2-yl)oxy)-[1,1’-biphenyl]-3-yl)-methanesulfonamide]: on FmlH (setting [2]), the IC50 is 1600 nM.

The molecule `CC(=O)N[C@H]1[C@H](Oc2cccc([N+](=O)[O-])c2-c2cccc(NS(C)(=O)=O)c2)O[C@H](CO)[C@H](O)[C@@H]1O` [Compound 78, N-((2S,3R,4R,5R,6R)-4,5-Dihydroxy-6-(hydroxymethyl)-2-((3’- (methylsulfonamido)-6-nitro-[1,1’-biphenyl]-2-yl)oxy)tetrahydro-2H-pyran-3-yl)acetamide] gave an IC50 at FmlH (setting [2]) of 58 nM. This IC50 is about 28-fold lower than that of the molecule before.

`CC(=O)N[C@H]1[C@H](Oc2cccc(C#N)c2-c2cccc(NS(C)(=O)=O)c2)O[C@H](CO)[C@H](O)[C@@H]1O` [Compound 79, N-((2S,3S,4R,5R)-2-((6-Cyano-3’-(methylsulfonamido)-[1,1’-bi-phenyl]-2-yl)oxy)-4,5-dihydroxy-6-(hydroxymethyl)tetra’hydro-2H-pyran-3-yl)acetamide] gave a half-inhibitory concentration (IC50) on FmlH (setting [2]) of 44 nM.

`CC(=O)N[C@H]1[C@H](Oc2cccc(F)c2-c2cccc(NS(C)(=O)=O)c2)O[C@H](CO)[C@H](O)[C@@H]1O` [Compound 80, N-((2S,3R,4R,5R,6R)-2-((6-Fluoro-3’-(methylsulfonamido)-[1,1’- biphenyl]-2-yl)oxy)-4,5-dihydroxy-6-(hydroxymethyl)tetrahydro-2H-pyran-3-yl)acetamide]: at FmlH (setting [2]), the half-maximal inhibitory concentration (IC50) came to 88 nM. Further, in data set [1], the kinetic solubility is 197 µM (≈ 95.4 µg/mL).

As for `CC(=O)N[C@H]1[C@H](Oc2cccc(C(=O)OCc3ccccc3)c2-c2cccc(NS(C)(=O)=O)c2)O[C@H](CO)[C@H](O)[C@@H]1O` [Compound 81, Benzyl6-(((2S,3S,4R,5R)-3-Acetamido-4,5-dihydroxy-6-(hydroxymethyl)tetrahydro-2H-pyran-2-yl)oxy)-3’-(methylsulfona-mido)-[1,1’-biphenyl]-2-carboxylate], the concentration for half-maximal inhibition (IC50) at FmlH (setting [2]) worked out at 89 nM.

Turning to `CC(=O)N[C@H]1[C@H](Oc2cccc(C(=O)O)c2-c2cccc(NS(C)(=O)=O)c2)O[C@H](CO)[C@H](O)[C@@H]1O` [Compound 82, 6-(((2S,3S,4R,5R)-3-Acetamido-4,5-dihydroxy-6 (hydroxymethyl)tetrahydro-2H-pyran-2-yl)oxy)-3 ‘-(methylsulfona-mido)-[1,1’-biphenyl]-2-carboxylic Acid], the half-inhibitory concentration (IC50) on FmlH (setting [2]) was 66 nM.

For `COc1cccc(O[C@@H]2O[C@H](CO)[C@H](O)[C@H](O)[C@H]2NC(C)=O)c1-c1cccc(NS(C)(=O)=O)c1` [Compound 83, N-((2S,3S,4R,5R)-4,5-Dihydroxy-6-(hydroxymethyl)-2-((6-me-thoxy-3 ‘-(methylsulfonamido)-[1,1 ‘-biphenyl]-2-yl)oxy)tetrahydro-2H-pyran-3-yl)acetamide], the half-maximal inhibitory concentration (IC50) at FmlH (setting [2]) is 92 nM.

On to `CC(=O)N[C@H]1[C@H](Oc2cccc(C)c2-c2cccc(NS(C)(=O)=O)c2)O[C@H](CO)[C@H](O)[C@@H]1O` [Compound 84, N-((2S,3R/4R/5R,6R)-4/5-Dihydroxy-6-(hydroxymethyl)-2-((6-methyl-3’-(methylsulfonamido)-[1,1’-biphenyl]-2-yl)oxy)-tetrahydro-2H-pyran-3-yl)acetamide], for which the IC50 is 62 nM at FmlH (setting [2]) and 120 nM at FmlH (IC50 expressed as a concentration, converted from IC50 of 120 nM). The molecule also came in with a solubility (kinetic) in data set [1] of 195 µM (≈ 93.7 µg/mL).

With `CC(=O)N[C@H]1[C@H](Oc2ccc3ccccc3c2-c2cccc(NS(C)(=O)=O)c2)O[C@H](CO)[C@H](O)[C@@H]1O` [Compound 85, N-((2S,3R,4R,5R,6R)-4,5-Dihydroxy-6-(hydroxymethyl)-2-((1-(3 (methylsulfonamido)phenyl)naphthalen-2-yl)oxy)tetrahydro-2H-pyran-3-yl)acetamide], the concentration for half-maximal inhibition (IC50) on FmlH (setting [2]) is 81 nM.

Molecule `CC(=O)N[C@H]1[C@H](Oc2cccc(C)c2-c2cccc(NS(=O)(=O)C3CC3)c2)O[C@H](CO)[C@H](O)[C@@H]1O` [Compound 86, N-((2S,3R,4R,5R,6R)-2-((3’-(Cyclopropanesulfonamido)-6-meth-yl-[1,1’-biphenyl]-2-yl)oxy)-4,5-dihydroxy-6-(hydroxymethyl)-tetrahydro-2H-pyran-3-yl)acetamide] returned an IC50 at FmlH (setting [2]) of 51 nM. The solubility (kinetic) in data set [1] is 196 µM (≈ 99.3 µg/mL). Further, the “renal clearance to the urine” value in the data set “Rat pharmacokinetics” is “low renal clearance to the urine”.

The molecule `Cc1cccc(O[C@@H]2O[C@H](CO)[C@H](O)[C@H](O)[C@H]2NS(C)(=O)=O)c1-c1cccc(NS(C)(=O)=O)c1` [Compound 89, N-((2S,3R,4R,5R,6R)-4,5-Dihydroxy-6-(hydroxymethyl)-2-((6-methyl-3’-(methylsulfonamido)-[1,1’-biphenyl]-2-yl)oxy)-tetrahydro-2H-pyran-3-yl)methanesulfonamide] gave an IC50 at FmlH (setting [2]) of 3500 nM. That is a single-digit micromolar value.

The values above are taken from PMC6467771 (Journal of medicinal chemistry, 2019).
